Tests used:
[1] = biological target: pertuzumab I83E IgG; test: SPR, meditope binding to immobilized pertuzumab I83E IgG; details: two fold dilutions from approximately 10 um to 156 nM
Procedure: The binding of a meditope to a meditope-enabled antibody containing the I83E modification was next examined in an in vitro binding study using surface plasmon resonance (SPR) and a meditope enabled antibody pertuzumab with the I83E modification. […] Concentrations were two fold dilutions from approximately 10 um to 156 nM. […] Further optimization of the experiment will be required due to the long off rate observed.

[2] = tested on: MDA-MB-468 cells; test: FACS binding of meditopes to MDA-MB-468 cells pre-treated with cetuximab or M425; assay type: cell-based; details: with or without cetuximab or M425 pre-treatment
[3] = tested on: CLL patients; details: cited from earlier work
[4] = Phase I, 46 heavily pretreated CLL patients, single agent

Substance	Kd fit [1]	binding to cells (FACS) [2]	objective responses [3, 4]	patients with decreased peripheral blood lymphocyte counts [3, 4] [%]	patients with reduced enlarged lymph node size [3, 4] [%]	MTD (maximum tolerated dose) ([3]; human, in vivo)	immunosuppression ([3]; human, in vivo)	adverse events (AEs) ([3]; majority of AEs)
C-QFDLSTRRLK-C [cQFD]	no Kd could be fit to the data	bound to EGFR positive MD-MBA-468 cells only in the presence of cetuximab						
lumiliximab: primatized anti-CD23 mAb with cynomolgus macaque variable regions and human constant regions (IgG1-κ)			no objective Complete Responses (CRs) or Partial Responses (PRs) were observed	91	52	not reached	not immunosuppressive	limited to grade 1/2
